Data published in ChEMBL document CHEMBL1697731, “Cheminformatics analysis of assertions mined from literature that describe drug-induced liver injury in different species” (Chem Res Toxicol, 2010).

Columns and labels:
Hepatotoxicity [1] = assay: Literature-mined compound from Fourches et al multi-species drug-induced liver injury (DILI) dataset, effect in non-rodents
Hepatotoxicity [2] = assay: Literature-mined compound from Fourches et al multi-species drug-induced liver injury (DILI) dataset, effect in humans; settings: human
Hepatotoxicity [3] = assay: Literature-mined compound from Fourches et al multi-species drug-induced liver injury (DILI) dataset, effect in rodents; settings: rodentia

Row | SMILES | Hepatotoxicity (Hepatotoxicity [1]) | Hepatotoxicity (Hepatotoxicity [2]) | Hepatotoxicity (Hepatotoxicity [3])
1 | COC1=C(OC)C(=O)C(CCCCCCCCCCO)=C(C)C1=O [IDEBENONE] | no drug-induced liver injury reported | no drug-induced liver injury reported | drug-induced liver injury reported
2 | CC/C(=C(\c1ccc(I)cc1)c1ccc(OCCN2CCCC2)cc1)c1ccccc1 [IDOXIFENE] | no drug-induced liver injury reported | no drug-induced liver injury reported | drug-induced liver injury reported
3 | O=P1(NCCCl)OCCCN1CCCl (stereo not given) [IFOSFAMIDE] | no drug-induced liver injury reported | drug-induced liver injury reported | no drug-induced liver injury reported
4 | CNC(=O)[C@H](Cc1c[nH]c2ccccc12)NC(=O)[C@@H](CC(=O)NO)CC(C)C [ILOMASTAT] | no drug-induced liver injury reported | no drug-induced liver injury reported | drug-induced liver injury reported
5 | CC#CCC(C)[C@H](O)/C=C/[C@@H]1[C@H]2C/C(=C/CCCC(=O)O)C[C@H]2C[C@H]1O (stereo not given in full) [ILOPROST] | no drug-induced liver injury reported | no drug-induced liver injury reported | drug-induced liver injury reported
6 | CS(=O)(=O)O.Cc1ccc(NC(=O)c2ccc(CN3CCN(C)CC3)cc2)cc1Nc1nccc(-c2cccnc2)n1 [IMATINIB MESYLATE] | no drug-induced liver injury reported | drug-induced liver injury reported | drug-induced liver injury reported
7 | CN(C)CCCN1c2ccccc2CCc2ccccc21 [IMIPRAMINE] | no drug-induced liver injury reported | drug-induced liver injury reported | drug-induced liver injury reported
8 | C#CC1(O)CCC2C3CCC4=CC(=O)CCC4C3C(=C)CC21CC (stereo not given) [IMPLANON] | no drug-induced liver injury reported | drug-induced liver injury reported | no drug-induced liver injury reported
9 | Nc1cc(-c2ccncc2)c[nH]c1=O [INAMRINONE] | no drug-induced liver injury reported | no drug-induced liver injury reported | drug-induced liver injury reported
10 | CC1Cc2ccccc2N1NC(=O)c1ccc(Cl)c(S(N)(=O)=O)c1 (stereo not given) [INDAPAMIDE] | no drug-induced liver injury reported | no drug-induced liver injury reported | drug-induced liver injury reported
11 | CC1(C)C(/C=C/C=C/C=C/C=C2/N(CCCCS(=O)(=O)[O-])c3ccc4ccccc4c3C2(C)C)=[N+](CCCCS(=O)(=O)[O-])c2ccc3ccccc3c21.[Na+] [INDOCYANINE GREEN] | no drug-induced liver injury reported | no drug-induced liver injury reported | drug-induced liver injury reported
12 | COc1ccc2c(c1)c(CC(=O)O)c(C)n2C(=O)c1ccc(Cl)cc1 [INDOMETHACIN] | drug-induced liver injury reported | drug-induced liver injury reported | drug-induced liver injury reported
13 | OC[C@H]1O[C@@H](n2cnc3c(O)ncnc32)[C@H](O)[C@@H]1O [INOSINE] | no drug-induced liver injury reported | no drug-induced liver injury reported | drug-induced liver injury reported
14 | O[C@H]1[C@H](O)[C@@H](O)[C@H](O)[C@@H](O)[C@H]1O [INOSITOL] | no drug-induced liver injury reported | drug-induced liver injury reported | no drug-induced liver injury reported
15 | Cc1cnc(NCCCN(C)C)c2c1[nH]c1ccc3cc(O)ccc3c12 [INTOPLICINE] | no drug-induced liver injury reported | drug-induced liver injury reported | no drug-induced liver injury reported
